Experimental data taken from patent publication US20220133722A1, “PHARMACEUTICAL COMPOSITIONS” (QUE ONCOLOGY PTY LTD, priority 2019, published 2022).
Several values for one entry are separate records, joined by “and”; a condition that tells them apart may be missing. Identical values can stand only once. Like-named read-outs stand apart in the source and are kept apart here.

Experiment: Part 1 PK study: single oral 200 mg dose, fed (high-fat meal) versus fasted
Assay type: in vivo, human
Settings: for Vd/F: read-out: Vz/F
Procedure: Part 1 involved analysing the PK parameters obtained following single oral administration of 200 mg tablets of a compound of formula (Ia) in free base form to 12 healthy female subjects following either fed (high-fat meal) or fasted conditions.
For Part 1 • Cmax maximum plasma concentration (observed) • Tmax time to reach the maximum plasma concentration (observed) • Clast last observed quantifiable concentration in plasma • Tlast time of last observed quantifiable concentration in plasma • AUC0-last area under the plasma concentration-time curve from time 0 to the time of the last quantifiable concentration • AUCinf area under the plasma concentration-time curve from time 0 to infinite time, calculated as the sum of AUClast and Clast/kel • % AUCexp percent of AUC extrapolated between AUC0-last and AUCinf • kel apparent terminal elimination rate constant • t1/2 elimination half-life associated with the terminal slope (kel) of the semilogarithmic drug concentration-time curve, calculated as 0.693/kel • CL/F apparent total body clearance of a drug from the plasma calculated by: CL/F=Dose/AUCinf • Vz/F apparent volume of distribution at steady state calculated by: V/F=[…]
An initial dose was administered on Day 1 followed by collection of samples for PK analysis for 96 hours. PK blood samples were taken pre-dose and 0.25, 0.5, 1.0, 1.5, 2, 3, 4, 8, 10, 12, 16, 24, 36, 48, 60, 72 and 96 hours post-dose, and urine samples were taken at 0-4, 4-8, 8-12, 12-24 and 24-48 hours. Ten days after the initial dose of study drug (Day 11), a second dose of drug was administered followed by collection of PK samples. Subjects completed the End-of-Study Visit (EOS) on Day 18, 7 days after the last dose of study drug.
Subjects selected for participation checked into the clinical unit and were randomized (on the morning of Day 1) to food state for study treatment; one half received study drug in the fed state first followed by fasted state for the second dose while the other half received study drug in the fasted state first followed by fed state. Prior to dosing on Day 1, all subjects fasted for a minimum of 10 hours overnight. On the morning of Day 1, subjects dosed in the fed state received the study drug within 10 min of completing a high fat breakfast. […] Plasma and urine samples were collected as set out above for the PK analysis. Subjects remained in the clinic for study procedures and blood draws before checking out after completion of study procedures on the morning of Day 4 (i.e., 72 hours post-dose) returning for the final PK blood draw on Day 5 at 96 hr post-dose. After the first single dose of study drug, subjects completed a 10-day washout period, returning to the clinical unit for check-in on Day 10. Subjects fasted overnight, receiving the second dose of study drug in the fed or fasted state on the morning of Day 11. Subjects were discharged from the clinic after the collection of the final 72-hr PK sample returning the next day for the 96 hr blood draw.
For both Parts 1 and 2, samples were processed and analysed as follows. The method extracted Q-122 and the Internal Standard (IS, Q-122 ^13C4) from human plasma using protein precipitation extraction.
The analytes were separated by HPLC on a Phenomenex Synergi Polar-RP column, and the eluates monitored by an API4000 MS/MS detector in positive MRM mode. The extract was then assayed against a calibration curve. The data were acquired and processed by the data acquisition system Analyst® (Sciex) linked directly to the API4000 MS/MS detector and then processed in Watson LIMS™ (Thermo Scientific), where applicable. The method range is from 10.0 to 2500 ng/mL using 50 μL of matrix and has a run time of approximately 3.2 minutes per sample.
Plasma PK parameters for each dosing regimen and dose level were calculated from the concentrations of Q-122 and its major metabolites measured in pre-dose and post-dose plasma samples. […]

[1] = female, human, plasma, po, 200 mg, single oral 200 mg, fasted, mean
[2] = female, human, plasma, po, 200 mg, single oral 200 mg, fasted, median
[3] = female, human, plasma, po, 200 mg, single oral 200 mg, fed (high-fat meal), mean
[4] = female, human, plasma, po, 200 mg, single oral 200 mg, fed (high-fat meal), median
[5] = single dose 200 mg, fed versus fasted
[6] = single oral 200 mg, fasted, individual subjects
[7] = single oral 200 mg, fasted, max
[8] = single oral 200 mg, fasted, mean
[9] = single oral 200 mg, fasted, median
[10] = single oral 200 mg, fasted, min
[11] = single oral 200 mg, fed (high-fat meal), individual subjects
[12] = single oral 200 mg, fed (high-fat meal), max
[13] = single oral 200 mg, fed (high-fat meal), mean
[14] = single oral 200 mg, fed (high-fat meal), median
[15] = single oral 200 mg, fed (high-fat meal), min
[16] = single oral dose 200 mg, healthy subjects

c1cnc(NCc2ccc(CNc3ncccn3)cc2)nc1 [Q-122]
bioavailability with a fatty meal (200 mg, with fatty meal versus fasted): increase in bioavailability
Tmax (female, human, plasma, oral, 200 mg, single dose 200 mg, fasted, subject 101009 omitted, read-out: Tmax (range over subjects)): 0.5 to 2 h
Tmax (female, human, plasma, oral, 200 mg, single dose 200 mg, fasted, read-out: Tmax (range over subjects)): 0.5 to 8 h
Tmax (female, human, plasma, oral, 200 mg, single dose 200 mg, fed, read-out: Tmax (range over subjects)): 0.5 to 10 h
AUC(0-inf) [1]: 7380 ng·h/mL
AUC(0-t) [1]: 6400 ng·h/mL
half-life [1]: 21.4 h
Cmax (female, human, plasma, po, 200 mg, single oral 200 mg, fasted, mean, read-out: Cmax): 620 ng/mL
Tmax (female, human, plasma, po, 200 mg, single oral 200 mg, fasted, mean, read-out: Tmax): 1.75 h
Vd/F [1]: 874 L
AUC(0-inf) [2]: 7390 ng·h/mL
AUC(0-t) [2]: 6330 ng·h/mL
half-life [2]: 23 h
Cmax (female, human, plasma, po, 200 mg, single oral 200 mg, fasted, median, read-out: Cmax): 613 ng/mL
Tmax (female, human, plasma, po, 200 mg, single oral 200 mg, fasted, median, read-out: Tmax): 1.25 h
Vd/F [2]: 798 L
AUC(0-t) [3]: 10200 ng·h/mL
half-life [3]: 12.3 h
Cmax (female, human, plasma, po, 200 mg, single oral 200 mg, fed (high-fat meal), mean, read-out: Cmax): 987 ng/mL
Tmax (female, human, plasma, po, 200 mg, single oral 200 mg, fed (high-fat meal), mean, read-out: Tmax): 6.23 h
Vd/F [3]: 404 L
AUC(0-inf) [4]: 11800 ng·h/mL
AUC(0-t) [4]: 11300 ng·h/mL
half-life [4]: 8.98 h
Cmax (female, human, plasma, po, 200 mg, single oral 200 mg, fed (high-fat meal), median, read-out: Cmax): 929 ng/mL
Tmax (female, human, plasma, po, 200 mg, single oral 200 mg, fed (high-fat meal), median, read-out: Tmax): 8 h
Vd/F [4]: 233 L
increase in mean AUC after food [5]: 1.6 fold
increase in mean Cmax after food [5]: 1.6 fold
change of Cmax and AUC0-last following food (single dose 200 mg, fed versus fasted, per subject): approximately doubled in 6 out of 11 subjects
% AUCexp [6]: 4.3% and 10.3% and 9.1% (2×) and 2.7% and 13.4% and 12.6% and 11.3% and 30.9% and 5.9% and 3.1%
AUC0-last [6]: 5881.1 ng·h/mL and 9258.3 ng·h/mL and 7702.0 ng·h/mL and 8375.7 ng·h/mL and 4924.9 ng·h/mL and 5410.8 ng·h/mL and 6774.9 ng·h/mL and 3631.6 ng·h/mL and 5150.3 ng·h/mL and 9154.4 ng·h/mL and 6812.7 ng·h/mL and 3704.2 ng·h/mL
AUCinf [6]: 6144.8 ng·h/mL and 10317.1 ng·h/mL and 8470.5 ng·h/mL and 8608.7 ng·h/mL and 5415.4 ng·h/mL and 6250.2 ng·h/mL and 7756.0 ng·h/mL and 4092.4 ng·h/mL and 9726.1 ng·h/mL and 7031.1 ng·h/mL
Cl/F [6]: 32.55 L/h and 19.39 L/h and 23.61 L/h and 23.23 L/h and 36.93 L/h and 32.00 L/h and 25.79 L/h and 48.87 L/h and 20.56 L/h and 28.45 L/h
Clast [6]: 15.50 ng/mL and 26.40 ng/mL and 16.30 ng/mL (2×) and 11.70 ng/mL and 14.20 ng/mL and 22.40 ng/mL and 30.90 ng/mL and 17.70 ng/mL and 39.70 ng/mL and 11.40 ng/mL and 22.00 ng/mL
Cmax [6]: 611.00 ng/mL and 801.00 ng/mL and 676.00 ng/mL and 1010.00 ng/mL and 103.00 ng/mL and 516.00 ng/mL and 668.00 ng/mL and 403.00 ng/mL and 559.00 ng/mL and 1050.00 ng/mL and 615.00 ng/mL and 422.00 ng/mL
Tlast [6]: 48.00 h and 96.00 h (3×) and 60.00 h (5×) and 72.00 h (2×) and 24.00 h
Tmax [6]: 1.00 h and 1.50 h and 0.50 h
kel [6]: 0.059 1/h and 0.025 1/h and 0.021 1/h and 0.050 1/h and 0.029 1/h (2×) and 0.027 1/h and 0.031 1/h and 0.038 1/h and 0.052 1/h
t1/2 [6]: 11.79 h and 27.80 h and 32.68 h and 13.80 h and 23.94 h and 25.98 h and 22.01 h and 18.04 h and 24.31 h and 13.28 h
% AUCexp [7]: 30.9%
AUC0-last [7]: 9258.3 ng·h/mL
AUCinf [7]: 10317.1 ng·h/mL
Cl/F [7]: 48.87 L/h
Clast [7]: 39.70 ng/mL
Cmax [7]: 1050.00 ng/mL
Tlast [7]: 96.00 h
kel [7]: 0.059 h⁻¹
t1/2 [7]: 32.68 h
% AUCexp [8]: 10.23%
Cl/F [8]: 29.137 L/h
Clast [8]: 20.375 ng/mL
Tlast [8]: 67.000 h
kel [8]: 0.0361 h⁻¹
% AUCexp [9]: 9.07%
Cl/F [9]: 27.12 L/h
Clast [9]: 17.00 ng/mL
Tlast [9]: 60.00 h
kel [9]: 0.0302 h⁻¹
% AUCexp [10]: 2.7%
AUC0-last [10]: 3631.6 ng·h/mL
AUCinf [10]: 4092.4 ng·h/mL
Cl/F [10]: 19.39 L/h
Clast [10]: 11.40 ng/mL
Cmax [10]: 103.00 ng/mL
Tlast [10]: 24.00 h
Tmax [10]: 0.50 h
kel [10]: 0.021 h⁻¹
t1/2 [10]: 11.79 h
% AUCexp [11]: 0.8% and 4.7% and 7.5% and 2.0% and 1.3% and 5.9% and 1.6% (2×) and 1.7% and 0.9% and 1.5%
AUC0-last [11]: 11087.2 ng·h/mL and 12782.0 ng·h/mL and 4088.9 ng·h/mL and 8498.9 ng·h/mL and 12043.9 ng·h/mL and 7713.8 ng·h/mL and 11821.5 ng·h/mL and 12551.6 ng·h/mL and 14254.9 ng·h/mL and 6505.3 ng·h/mL
AUCinf [11]: 11171.4 ng·h/mL and 13417.1 ng·h/mL and 4422.3 ng·h/mL and 12197.9 ng·h/mL and 8201.3 ng·h/mL and 11516.0 ng·h/mL and 12030.1 ng·h/mL and 12760.3 ng·h/mL and 14389.6 ng·h/mL and 6606.2 ng·h/mL
Cl/F [11]: 17.90 L/h and 14.91 L/h and 45.22 L/h and 16.40 L/h and 24.39 L/h and 17.37 L/h and 16.62 L/h and 15.67 L/h and 13.90 L/h and 30.27 L/h
Clast [11]: 11.00 ng/mL and 14.70 ng/mL and 11.20 ng/mL and 34.20 ng/mL and 15.10 ng/mL and 16.70 ng/mL and 21.50 ng/mL and 15.40 ng/mL and 13.60 ng/mL and 10.90 ng/mL and 12.20 ng/mL
Cmax [11]: 1520.00 ng/mL and 1180.00 ng/mL and 267.00 ng/mL and 797.00 ng/mL and 603.00 ng/mL and 1400.00 ng/mL and 914.00 ng/mL and 1240.00 ng/mL and 1230.00 ng/mL and 779.00 ng/mL
Tlast [11]: 36.00 h (3×) and 96.00 h (2×) and 24.00 h and 48.00 h (4×) and 60.00 h
Tmax [11]: 0.50 h and 10.00 h
kel [11]: 0.131 1/h and 0.023 1/h and 0.034 1/h (2×) and 0.098 1/h and 0.114 1/h and 0.074 1/h and 0.065 1/h and 0.081 1/h and 0.121 1/h
t1/2 [11]: 5.30 h and 29.71 h and 20.63 h and 7.07 h and 20.23 h and 6.08 h and 9.39 h and 10.63 h and 8.57 h and 5.73 h
% AUCexp [12]: 7.5%
AUC0-last [12]: 14254.9 ng·h/mL
AUCinf [12]: 14389.6 ng·h/mL
Cl/F [12]: 45.22 L/h
Clast [12]: 34.20 ng/mL
Cmax [12]: 1520.00 ng/mL
Tlast [12]: 96.00 h
Tmax [12]: 10.00 h
kel [12]: 0.131 h⁻¹
t1/2 [12]: 29.71 h
% AUCexp [13]: 2.70%
Cl/F [13]: 21.266 L/h
Clast [13]: 16.045 ng/mL
Tlast [13]: 52.364 h
kel [13]: 0.0775 h⁻¹
% AUCexp [14]: 1.64%
Cl/F [14]: 17.00 L/h
Clast [14]: 14.70 ng/mL
Tlast [14]: 48.00 h
kel [14]: 0.0774 h⁻¹
% AUCexp [15]: 0.8%
AUC0-last [15]: 4088.9 ng·h/mL
AUCinf [15]: 4422.3 ng·h/mL
Cl/F [15]: 13.90 L/h
Clast [15]: 10.90 ng/mL
Cmax [15]: 267.00 ng/mL
Tlast [15]: 24.00 h
Tmax [15]: 0.50 h
kel [15]: 0.023 h⁻¹
t1/2 [15]: 5.30 h
increase of mean AUC0-inf by a high-fat meal compared to the fasted state [16]: ~45%
increase of mean Cmax by a high-fat meal compared to the fasted state [16]: about 60%
